Source: ChEMBL document CHEMBL1811886 (J Med Chem, 2011)

Assays:
[1] = Terminal half life in fasted Sprague-Dawley rat at 1 mg/kg, iv after 6 to 24 hrs by LC-MS/MS analysis; assay type: ADME, organism-based; design: dose 1 mg/kg, route intravenous; conditions: in vivo, read-out: beta t1/2 (converted)
[2] = Oral bioavailability in fasted Sprague-Dawley rat at 5 mg/kg after 6 hrs by LC-MS/MS analysis; assay type: ADME, organism-based; conditions: in vivo
[3] = Ratio of drug uptake in brain to plasma of fasted Sprague-Dawley rat at 1 mg/kg, iv after 6 to 24 hrs by LC-MS/MS analysis; assay type: ADME, organism-based; design: dose 1 mg/kg, route intravenous; conditions: read-out: BPR
[4] = Systemic clearance in fasted Sprague-Dawley rat at 1 mg/kg, iv after 6 to 24 hrs by LC-MS/MS analysis; assay type: ADME, organism-based; design: dose 1 mg/kg, route intravenous; conditions: in vivo
Histamine H3 receptor [5] = molecular target: Histamine H3 receptor (Homo sapiens, UniProt Q9Y5N1); experiment: Displacement of [3H]NAMH from human histamine H3 receptor expressed in CHO cells; assay type: cell-based
Histamine H3 receptor [6] = molecular target: Histamine H3 receptor (Rattus norvegicus, UniProt Q9QYN8); experiment: Displacement of [3H]NAMH from rat histamine H3 receptor expressed in CHO cells; assay type: cell-based
[7] = Dissociation constant, pKa of the compound; assay type: physicochemical

Chain of Histamine H3 receptor (Rattus norvegicus, UniProt Q9QYN8) (Q9QYN8 whole entry): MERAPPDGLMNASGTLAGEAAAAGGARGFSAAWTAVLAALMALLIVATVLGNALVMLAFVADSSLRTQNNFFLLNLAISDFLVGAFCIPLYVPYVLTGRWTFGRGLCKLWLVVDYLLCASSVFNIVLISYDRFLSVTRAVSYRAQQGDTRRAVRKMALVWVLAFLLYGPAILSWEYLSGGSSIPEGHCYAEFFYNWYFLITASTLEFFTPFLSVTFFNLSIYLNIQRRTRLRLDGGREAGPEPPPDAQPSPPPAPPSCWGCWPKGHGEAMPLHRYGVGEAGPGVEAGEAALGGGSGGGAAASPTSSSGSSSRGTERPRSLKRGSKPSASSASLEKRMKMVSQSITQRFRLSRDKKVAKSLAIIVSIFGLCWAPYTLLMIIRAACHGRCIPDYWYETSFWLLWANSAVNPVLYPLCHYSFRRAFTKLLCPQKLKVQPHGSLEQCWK
Chain of Histamine H3 receptor (Homo sapiens, UniProt Q9Y5N1) (Q9Y5N1 whole entry): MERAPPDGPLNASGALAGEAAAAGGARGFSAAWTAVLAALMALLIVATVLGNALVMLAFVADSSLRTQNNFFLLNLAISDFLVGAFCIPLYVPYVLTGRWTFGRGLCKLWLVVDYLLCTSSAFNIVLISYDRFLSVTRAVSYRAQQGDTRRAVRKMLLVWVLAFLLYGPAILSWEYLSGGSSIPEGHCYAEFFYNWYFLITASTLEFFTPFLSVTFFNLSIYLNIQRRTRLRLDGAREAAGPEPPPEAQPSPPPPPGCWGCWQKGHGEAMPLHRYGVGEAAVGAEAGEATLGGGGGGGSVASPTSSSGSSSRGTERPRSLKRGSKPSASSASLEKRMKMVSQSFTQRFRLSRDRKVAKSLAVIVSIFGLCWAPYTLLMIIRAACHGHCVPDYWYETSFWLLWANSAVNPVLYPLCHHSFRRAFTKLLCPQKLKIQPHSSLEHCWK

half-life [1]	bioavailability [2]	Kp [3]	clearance [4]	Ki (Histamine H3 receptor [5])	Ki (Histamine H3 receptor [6])	pKa [7]	Structure (SMILES)
18 min	5%	2.1	258 mL/min/kg	4.8 nM	7.6 nM	–	CC(C)n1nc(-c2ccc(OCCCN3CCC[C@H]3C)cc2)ccc1=O
–	–	–	–	767 nM	822 nM	7.1	O=c1ccc(-c2ccc(OCCCN3CCOCC3)cc2)n[nH]1
54 min	11%	1.9	4.9 mL/min/kg	8.7 nM	37 nM	–	O=c1ccc(-c2ccc(OCCCN3CCCCC3)cc2)n[nH]1
72 min	22%	5.3	50 mL/min/kg	21 nM	106 nM	–	Cn1nc(-c2ccc(OCCCN3CCCCC3)cc2)ccc1=O
